Legend:
[1] = Mouse pharmacokinetic assay; assay type: in vivo, male ICR mice; conditions: male, ICR, plasma
Protocol: (§1) In a mouse pharmacokinetic assay, male ICR mice (20 g to 25 g) were selected and fasted overnight. Three mice were selected and intragastrically administered with 5 mg/kg of the corresponding compound. The blood of the mice was collected before the administration and at 15 min, 30 min, 1 h, 2 h, 4 h, 8 h, 24 h after the administration. Another 3 mice were intravenously administered with 1 mg/kg of the corresponding compound, and the blood thereof was collected before the administration and at 15 min, 30 min, 1 h, 2 h, 4 h, 8 h, 24 h after the administration. The blood samples were centrifuged at 6800 g at 2° C. to 8° C. for 6 minutes, and plasma was collected and stored at −80° C. The plasma was taken at respective time point, mixed with 3-5 times the amount of acetonitrile containing internal standard, vortexed for 1 minute, centrifuged at 4° C. for 10 minutes at 13000 rpm, supernatant was added 3 times the amount of water, and the appropriate mixture was taken for LC-MS/MS analysis. The primary pharmacokinetic parameters were analyzed with a WinNonlin 7.0 software, with non-compartmental model.

human EP4 receptor [2] = biological target: T1, human EP4 receptor (Homo sapiens, UniProt P35408); assay: Assay of calcium current inhibition on EP4 receptor (FLIPR, 293 cells); assay type: cell-based; set-up: expressed in transfected cells; host or cells: 293 cells; conditions: 293 cells overexpressing human EP4; PGE2 at EC80; FLIPR
Protocol: The cells were rapidly thawed in a 37° C. water bath, centrifuged, resuspended, and counted. The cell suspensions were seeded at 20 μL/well in two 384-well plates (20,000 cells/well) and placed in an incubator (a 37° C., 5% CO2) overnight. Preparation of a 2× Fluo-4 Direct™ (Invitrogen, Cat #F10471) loading buffer: 77 mg of probenecid was added to 1 mL of a FLIPR buffer, with a concentration of 250 mM. 10 mL of FLIPR buffer and 0.2 mL of probenecid (250 mM) were added to each tube of Fluo-4 Direct™ crystals (F10471).
One of the cell plates was taken out of the incubator and the medium was removed. 20 μL of an assay buffer and 2× Fluo-4 Direct™ non-wash loading buffer were added to the 384-well cell culture plate to a final volume of 40 μL, and then the culture plate was incubated in an incubator (a 37° C., 5% CO2) for 50 minutes, and then at room temperature for 10 minutes, and then the plate was placed in the FLIPR. 10 μL of the buffer was transferred to the cell plate and the fluorescence signal was read. The agonist PGE2 was formulated as a 10 mM stock in a DMSO solvent and 10 concentration points of the 6× working solution were serially diluted using the buffer. 10 μL of the agonist PGE2 was transferred to the cell plate, the fluorescence signal was read to calculate EC80 value.
The agonist PGE2 was prepared at 6× EC80 concentration and the compound to be tested was formulated as a 10 mM stock solution in the DMSO solvent and 10 concentration points of the 6× compound working solution was serially diluted using the buffer.
Another cell plate was taken to remove media and 20 μL of the assay buffer and 2× Fluo-4 Direct™ non-wash loading buffer were added; the cell plate was incubated in a 37° C., 5% CO2 incubator for 50 minutes and room temperature for 10 minutes and then placed in the FLIPR. 10 μL of the compound working solution, DMSO, and the EP4 full antagonist were transferred to the cell plate and the fluorescence signal was read. […] Inhibition (%)=100−(test group−EP4 full antagonist group)/(DMSO group−EP4 full antagonist group)*100
Compound's IC50 value of EP4 calcium current inhibition was calculated based on the inhibition rate at different concentrations of the compound.

[3] = test system: CT-26 murine colon cancer tumor model; assay: Anti-tumor effect in CT-26 murine colon cancer tumor model in combination with radiation therapy; assay type: in vivo, mouse; conditions: 150 mg/kg intragastric once daily in combination with radiotherapy (3Gry, once on day 1); day 23; tumor weight
Protocol: In this assay, the anti-tumor effects of the control compound and the compounds prepared in Examples 1 to 43, in combination with radiation therapy, were tested in a CT-26 murine colon cancer tumor model.
After one week of adaptive feeding of mice, CT-26 cells in a log phase were resuspended in PBS, 5×10^5 CT-26 cells were inoculated subcutaneously at the right flank at 100 μL per mouse, and tumor growth was observed regularly. When the tumor grew to an average volume of 60 to 80 mm^3, the mice carrying the tumor were randomly divided into 5 groups based on the tumor volume size, each group containing 10 mice of 10. These group were a group of Control compound (150 mg/kg) in combination with radiotherapy (3Gry), a group of Compound I-2 (150 mg/kg) in combination with radiotherapy, a group of Compound I-5 (150 mg/kg) in combination with radiotherapy, a group of radiotherapy (3Gry) alone, and a group of vehicle control. The mice were intragastrically administered with the corresponding compound once daily, for 23 days in total; radiation therapy was performed for one-time on the first day of the administration. Tumor volumes and mouse body weights were measured twice a week, and tumor weights were weighed at the end of the experiment. Efficacy evaluations were performed based on relative tumor inhibition (TGI), safety evaluations were performed based on changes in animal body weight and death. Tumor volume and relative tumor inhibition were calculated as follows:
Tumor volume (TV)=½×a×b^2, where a and b are the length and width of the tumor measurement, respectively.
Relative tumor inhibition rate TGI (%)=(TWc−TWt/TWc)×100%, where TWc is the mean tumor weight of the vehicle control group and TW is the mean tumor weight of the treatment group.

[4] = biological target: T2, recombinant human EP4 receptor membrane protein (Homo sapiens, UniProt P35408); assay: Radioligand binding assay for EP4 receptor ([3H]-PGE2); conditions: [3H]-PGE2 1.5 nM; membrane protein 20 μg/well
T2 construct: expressed in transfected cells; host or cells: membranes of 293 cells overexpressing human EP4 receptor
Protocol: The compounds to be tested and PGE2 were formulated as 10 mM stocks in a DMSO solvent, and then 8 concentration points of 4× working solution were serially diluted using a buffer (50 mM HBSS, 0.1% BSA, 500 mM NaCl). […] Unifilter-96 GF/C filter plate (Perkin Elmer) was soaked with 0.5% BSA, 50 μL per well, for at least 30 min at room temperature. After binding was complete, the reaction mixture was harvested through a GF/C plate using a Perkin Elmer Filtermate Harvester, followed by washing the filter plate and drying the filter plate for 1 hour at 50° C. After drying, the bottom of the filter plate wells was sealed using a Perkin Elmer Unifilter-96 sealing tape, and 50 μL of MicroScint™-20 cocktail (Perkin Elmer) was added to seal the top of the filter plate. The ^3H counts captured on the filter were read using a Perkin Elmer MicroBeta2 Reader.
The IC50 and Ki values of the compounds determined by the radioligand binding assay for EP4 receptor were calculated based on the inhibition rate of the different concentrations of the compounds.

human EP4 receptor [5] = biological target: T1, human EP4 receptor; assay: Assay for EP4 antagonistic effect (cAMP, PGE2-stimulated CHO stable cell line)
Protocol: After trypsinization, cells were resuspended in a buffer (1×HBSS, 0.1% BSA, 20 mM HEPES, and 500 μM IBMX) and 8000 cells were seeded per well in 384-well plates in a seeding volume of 15 μL. A working solution the compound with a 8× concentration was prepared with an experimental buffer, and then 2.5 μL of the working solution of the compound with 8× concentration was added to the 384-well plate, respectively, and incubated at 37° C. for 30 min. An agonist PGE2 working solution with 8× concentration of (4 nM) was prepared with the experimental buffer and 2.5 μL per well was added to the 384-well plate (the final PGE2 concentration was 0.5 nM) and incubated at 37° C. for 30 min. After the reaction was completed, the amount of cAMP in the cells was quantified according to the method in the instructions of the cAMP test kit (Perkin Elmer, Cat #TRF0263). The antagonistic effects (IC50 value) were calculated for the test compounds.

[6] = Canine pharmacokinetic assay; assay type: in vivo, male Beagle dogs; conditions: male, Beagle, dog, plasma, canine
Protocol: as §1
In a canine pharmacokinetic assay, male Beagle dogs (8 kg to 10 Kg) were selected and fasted overnight. Three Beagle dogs were taken and intragastrically administered with 3 mg/kg of the corresponding compound. Another 3 Beagle dogs were intravenously administered with 1 mg/kg of the corresponding compound. The following operations were the same as the mouse pharmacokinetic assay.

[7] = Rat pharmacokinetic assay; assay type: in vivo, male SD rats; conditions: male, SD, plasma, rat
Protocol: as §1
In a rat pharmacokinetic assay, male SD rats (180 g to 240 g) were selected and fasted overnight. Three rats were intragastrically administered with 5 mg/kg of the corresponding compound. Another 3 rats were intravenously administered with 1 mg/kg of the corresponding compound. The following operations were the same as the mouse pharmacokinetic assay.

[8] = oral gavage administration 5 mg/kg
[9] = oral gavage administration 3 mg/kg
[10] = intravenous administration 1 mg/kg
[11] = intravenous administration 1 mg/kg, read-out: Vz

T2 sequence (P35408 whole entry): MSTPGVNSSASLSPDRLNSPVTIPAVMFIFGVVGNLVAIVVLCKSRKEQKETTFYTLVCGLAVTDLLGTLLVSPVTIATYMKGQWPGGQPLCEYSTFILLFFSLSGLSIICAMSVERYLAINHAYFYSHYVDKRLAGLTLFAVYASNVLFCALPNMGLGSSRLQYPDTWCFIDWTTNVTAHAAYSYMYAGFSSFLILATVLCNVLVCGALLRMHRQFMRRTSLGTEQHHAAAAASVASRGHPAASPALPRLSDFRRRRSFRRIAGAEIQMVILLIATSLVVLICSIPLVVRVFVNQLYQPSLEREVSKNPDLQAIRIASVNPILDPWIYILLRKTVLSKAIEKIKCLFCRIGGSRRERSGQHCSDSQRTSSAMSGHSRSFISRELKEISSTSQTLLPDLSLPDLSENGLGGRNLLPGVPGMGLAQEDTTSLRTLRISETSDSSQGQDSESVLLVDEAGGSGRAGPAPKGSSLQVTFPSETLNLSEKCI
T1 sequence (P35408 whole entry): as above

| AUC(0-t) [1, 8] [ng·h/mL] | Cmax [1, 8] [ng/mL] | Tmax [1, 8] [h] | half-life [1, 8] [h] | IC50 (human EP4 receptor [2]) [nM] | IC50 [4] [nM] | Ki [4] [nM] | IC50 (human EP4 receptor [5]) [nM] | SMILES | relative tumor inhibition rate TGI (%) [3] [%] | AUC(0-t) [6, 9] [ng·h/mL] | Cmax [6, 9] [ng/mL] | Tmax [6, 9] [h] | half-life [6, 9] [h] | also measured |
| --- | --- | --- | --- | --- | --- | --- | --- | --- | --- | --- | --- | --- | --- | --- |
| 2140 | 1840 | 0.33 | 15.7 | 7.4 | 5.5 | 3 | 1.9 | CCc1cc(Oc2c(C(=O)N[C@@H](C)c3ccc(C(=O)O)cc3)c(C(F)F)nn2C)ccc1F [Compound I-2, (S)-4-(1-(3-(difluoromethyl)-5-(3-ethyl-4-fluorophenoxy)-1-methyl-1H-pyrazole-4-carboxamido)ethyl)benzoic Acid] | 63 |  |  |  |  |  |
| 2440 | 570 | 0.33 | 23.2 | 15 | 13 | 7.3 | 8.6 | C[C@H](NC(=O)c1c(C(F)F)nn(C)c1Oc1csc(C(F)(F)F)c1)c1ccc(C(=O)O)cc1 [Compound I-42, (S)-4-(1-(3-(difluoromethyl)-1-methyl-5-((5-(trifluoromethyl)thiophen-3-yl)oxy)-1H-pyrazole-4-carboxamido)ethyl)benzoic Acid] |  | 7190 | 4850 | 0.25 | 8.35 |  |
| 4440 | 1280 | 0.42 | 7.22 | 8 | 11 | 5.8 | 8.2 | C[C@H](NC(=O)c1c(C(F)F)nn(C)c1Oc1cccc(CC(F)(F)F)c1)c1ccc(C(=O)O)cc1 [Compound I-6, (S)-4-(1-(3-(difluoromethyl)-1-methyl-5-(3-(2,2,2-trifluoroethyl)phenoxy)-1H-pyrazole-4-carboxamido)ethyl)benzoic Acid] |  |  |  |  |  |  |
| 2140 | 1110 | 0.33 | 4.33 | 15 | 16 | 8.9 | 3.7 | CCc1cccc(Oc2c(C(=O)N[C@@H](C)c3ccc(C(=O)O)cc3)c(C(F)F)nn2C)c1 [Compound I-1, (S)-4-(1-(3-(difluoromethyl)-5-(3-ethylphenoxy)-1-methyl-1H-pyrazole-4-carboxamido)ethyl)benzoic Acid] |  |  |  |  |  |  |
| 3060 | 1040 | 0.33 | 7.12 | 6 | 28 | 15 | 6.6 | C[C@H](NC(=O)c1c(C(F)F)nn(C)c1Sc1cccc(C(F)(F)F)c1)c1ccc(C(=O)O)cc1 [Compound I-35, (S)-4-(1-(3-(difluoromethyl)-1-methyl-5-((3-(trifluoromethyl)phenyl)thio)-1H-pyrazole-4-carboxamido)ethyl)benzoic Acid] |  |  |  |  |  |  |

| SMILES | AUC(0-t) [1, 8] [ng·h/mL] | Cmax [1, 8] [ng/mL] | Tmax [1, 8] [h] | half-life [1, 8] [h] | IC50 (human EP4 receptor [2]) [nM] | IC50 [4] [nM] | Ki [4] [nM] | IC50 (human EP4 receptor [5]) [nM] | relative tumor inhibition rate TGI (%) [3] [%] | AUC(0-t) [6, 9] [ng·h/mL] | Cmax [6, 9] [ng/mL] | Tmax [6, 9] [h] | half-life [6, 9] [h] | also measured |
| --- | --- | --- | --- | --- | --- | --- | --- | --- | --- | --- | --- | --- | --- | --- |
| C[C@H](NC(=O)c1c(C(F)F)nn(C)c1Oc1cccc(C(F)(F)F)c1)c1ccc(C(=O)O)cc1 [Control Compound, reference compound] | 1770 | 792 | 0.25 | 30.9 |  |  |  |  | 54 | 6800 | 1360 | 1 | 18.6 | AUC(0-t) [7, 10]: 1420 ng·h/mL; clearance [7, 10]: 10.2 mL/min/kg; half-life [7, 10]: 10.9 h; Vd [7, 11]: 9.55 L/kg; AUC(0-t) [7, 8]: 6850 ng·h/mL; Cmax [7, 8]: 1100 ng/mL; Tmax [7, 8]: 0.5 h; half-life [7, 8]: 12.7 h; AUC(0-t) [1, 10]: 974 ng·h/mL; clearance [1, 10]: 14.7 mL/min/kg; half-life [1, 10]: 6.64 h; Vd [1, 11]: 8.38 L/kg; AUC(0-t) [6, 10]: 3730 ng·h/mL; clearance [6, 10]: 4 mL/min/kg; half-life [6, 10]: 9.36 h; Vd [6, 11]: 3.21 L/kg |

Reference: US12643889B2, “Synthesis of novel EP4 antagonist and use in cancer and inflammation” (Wuhan Humanwell Innovative Drug Research And Development …, priority 2020, dated 2026)
